Converted amounts (≈) assume the structure as drawn. “Also recorded” adds a separate entry of the source. Where two headings read alike, the source gives them in different places. Where a SMILES comes first, the peptide text is derived from it.
How the values were obtained:
[1] = tested on: Candida albicans (ATCC 14053)
Protocol: (§1) Antimicrobial and Hemolytic Assays. Antimicrobial susceptibility testing against Staphylococcus aureus (ATCC 29213), Escherichia coli (ATCC 25922), and Pseudomonas aeruginosa (ATCC 27853) was performed using a modification of the National Committee for Clinical Laboratory Standards microdilution broth assay (22). Mueller-Hinton broth (BBL) was used for diluting the peptide stock solution and for diluting the bacterial inoculum. The inoculum was prepared from mid-logarithmic phase cultures. Microtiter plate wells received aliquots-of 100 μL each of the inoculum and peptide dilution. The final concentration of peptide solution ranged-from 0.25 to 256 μg/mL in two-fold dilutions. The final concentration of bacteria in the wells was 5×10^5 CFU/mL. Peptides were tested in duplicate. In addition to the test peptide, three standard peptides and a non-treated growth control were included to validate the assay. The microtiter plates were incubated overnight at 37° C. and the absorbance was measured at 600 nm. […] After incubation at 37° C. for 30 min, the suspension was centrifuged at 10,000×g for 10 min and the absorbance at 400 nm was measured. Complete hemolysis was determined by adding 0.2% Triton X-100 in place of the peptide.
Antimicrobial susceptibility testing against Escherichia coli (ATCC 25922), Staphylococcus aureus (ATCC 29213), Pseudomonas aeruginosa (ATCC 27853), and Candida albicans (ATCC 14053) is performed using a modification of the National Committee for Clinical Laboratory Standards microdilution broth assay. Mueller-Hinton broth (BBL) is used for diluting the peptide stock solution and for diluting the bacterial inoculum. The inoculum is prepared from midlogarithmic phase cultures at an approximate concentration of 10^6 CFU/mL. Microtiter plate wells receive aliquots of 0.1 mL each of the inoculum and peptide dilution. The final concentration of the peptide solution ranges from 0.25 to 256 μg/mL in 2-fold dilutions. The microtiter plates are incubated overnight at 37° C.

[2] = tested on: Escherichia coli (ATCC 25922); assay type: cell-based
[3] = tested on: Pseudomonas aeruginosa (ATCC 27853); assay type: cell-based
[4] = tested on: Staphylococcus aureus (ATCC 29213); assay type: cell-based
human erythrocytes = test: Hemolysis of human erythrocytes; assay type: cell-based
Protocol: as §1, with “Microtiter plate wells received aliquots-of 100 μL each of the inoculum and peptide dilution.” left out, “measured.” for “measured. Complete hemolysis was determined by adding 0.2% Triton X-100 in place of the peptide.”

[5] = Peptide-induced leakage from calcein-loaded LUV
Protocol: Peptide-Induced Leakage from Calcein-Loaded LUV. The ability of the peptides to release calcein (MW 623) from LUV of varying lipid composition was compared. LUV were prepared as above, except that-the buffer consisted of 50 mM HEPES, 100 mM NaCl, 0.3 mM EDTA, 80 mM calcein, pH 7.4. Calcein-loaded vesicles were separated from free calcein by size-exclusion chromatography using a Sephadex G-50 column and calcein-free buffer. Calcein leakage was monitored using a Perkin-Elmer LS-500 luminescence spectrometer by measuring the time-dependent increase in fluorescence of calcein (excitation=490 nm, emission=520 nm). LUV containing 8 nmoles of lipid were added to 1.5 mL of buffer in a stirred cuvet at 25° C. An aliquot of peptide was added to achieve the desired lipid-to-peptide ratio (256 to 8). Complete leakage was determined by the addition of 20 μL of 10% Triton X-100. Each value represents at least nine different measurements using at least three different LUV preparations.

microorganisms = conditions: literature (52, 54); E. coli, S. aureus, P. aeruginosa for FKVKFKVKVK; cited from earlier work
[6] = POPC/POPG LUV, all ratios (1:1 to 4:1)

Compound | Minimum Inhibitory Concentration, C. albicans ([1]; ATCC 14053) [µg/mL] | Minimum Inhibitory Concentration, E. coli ([2]; ATCC 25922) [µg/mL] | Minimum Inhibitory Concentration, P. aeruginosa ([3]; ATCC 27853) [µg/mL] | Minimum Inhibitory Concentration, S. aureus ([4]; ATCC 29213) [µg/mL] | % Hemolysis (500 μg/mL) (human erythrocytes; red cells of human, 500) [%] | calcein leakage from LUV (in words) ([5]; 4:1 POPE/POPG LUV) | calcein leakage from LUV (in words) ([5]; POPC (PC) LUV) | calcein leakage from LUV (in words) [5, 6] | also measured
CC[C@H](C)[C@H](NC(=O)[C@H](CCCCN)NC(=O)CNC(=O)[C@H](C)NC(=O)[C@@H](NC(=O)[C@H](CCCCN)NC(=O)[C@H](C)NC(=O)[C@@H](NC(=O)[C@H](CCCCN)NC(=O)CNC(=O)[C@H](C)NC(=O)[C@@H](NC(=O)[C@H](CCCCN)NC(=O)[C@H](C)NC(=O)[C@@H](NC(=O)[C@H](CCCCN)NC(=O)CNC(=O)[C@H](C)NC(=O)[C@@H](NC(=O)[C@@H](N)CCCCN)[C@@H](C)CC)[C@@H](C)CC)[C@@H](C)CC)[C@@H](C)CC)[C@@H](C)CC)C(=O)N[C@@H](C)C(N)=O [(KIAGKIA)3-NH2, KIAGKIAKIAGKIAKIAGKIA -NH2, reference compound] (H-KIAGKIAKIAGKIAKIAGKIA-NH2; N-terminus assumed) | 64 | 8 | 32 | 8 | 9 | most potent | not very effective |  | MIC E. coli ([2]; ATCC 25922): 8 µg/mL (≈ 3.88 µM); MIC Pseud. aerug ([3]; ATCC 27853): 32 µg/mL (≈ 15.5 µM); MIC Staph. aureus ([4]; ATCC 29213): 8 µg/mL (≈ 3.88 µM)
FKVKFKVKVK (artificial mutant) |  |  |  |  |  |  |  |  | antimicrobial or hemolytic activity as reported in the literature (microorganisms): able to inhibit the growth
CC[C@H](C)[C@H](NC(=O)[C@H](C)NC(=O)CNC(=O)[C@H](C)NC(=O)[C@H](CCCCN)NC(=O)[C@H](CO)NC(=O)[C@H](C)NC(=O)[C@H](CCSC)NC(=O)CN)C(=O)N[C@@H](C)C(=O)NCC(=O)N[C@@H](CCCCN)C(=O)N[C@H](C(=O)N[C@@H](C)C(=O)N[C@@H](CCCCN)C(=O)N[C@H](C(=O)N[C@@H](C)C(=O)N[C@@H](CC(C)C)C(=O)N[C@@H](CCCCN)C(=O)N[C@@H](C)C(=O)N[C@@H](CC(C)C)C(N)=O)C(C)C)[C@@H](C)CC [PGLa, GMASKAGAIAGKIAKVALKAL -NH2, reference compound] (H-GMASKAGAIAGKIAKVALKAL-NH2; N-terminus assumed) | 128 | 32 | 128 | 64 | 1 | quite low | not very effective | most potent | calcein release from LUV (in words) ([5]; POPG LUV): most potent
CC[C@H](C)[C@H](NC(=O)[C@H](CCCCN)NC(=O)[C@H](C)NC(=O)CNC(=O)[C@@H](NC(=O)[C@H](CCCCN)NC(=O)[C@@H](NC(=O)[C@H](CCCCN)NC(=O)[C@H](C)NC(=O)CNC(=O)[C@@H](NC(=O)[C@H](CCCCN)NC(=O)[C@@H](NC(=O)[C@H](CCCCN)NC(=O)[C@H](C)NC(=O)CNC(=O)[C@@H](NC(=O)[C@@H](N)CCCCN)[C@@H](C)CC)[C@@H](C)CC)[C@@H](C)CC)[C@@H](C)CC)[C@@H](C)CC)C(N)=O [(KIGAKI)3-NH2, K I G A K I K I G A K I K I G A K I -NH2] (H-KIGAKIKIGAKIKIGAKI-NH2) |  |  |  |  |  | most potent | not very effective; also recorded: low lytic activity | least potent | Minimum Inhibitory Concentration, C. albicans ([1]; Table 2): 64 µg/mL; Minimum Inhibitory Concentration, E. coli ([2]; Table 2, overnight at 37° C.): 8 µg/mL; MIC E. coli ([2]; Table 4): 8 µg/mL (≈ 4.33 µM); Minimum Inhibitory Concentration, P. aeruginosa ([3]; Table 2, overnight at 37° C.): 32 µg/mL; MIC Pseud. aerug ([3]; Table 4): 32 µg/mL (≈ 17.3 µM); Minimum Inhibitory Concentration, S. aureus ([4]; Table 2, overnight at 37° C.): 16 µg/mL; MIC Staph. aureus ([4]; Table 4): 8 µg/mL (≈ 4.33 µM); % Hemolysis (500 μg/mL) (human erythrocytes; 500 μg/mL peptide, 5% human erythrocytes, 37° C., 30 min): 3%

From patent US20040249122A1, “Cationic, amphipathic beta-sheet peptides and uses thereof” (priority 2003, published 2004)
